Values joined by “and” are separate entries in the source; they are usually repeats but may differ in a detail not shown here. Identical values can stand only once. Like-named read-outs stand apart in the source and are kept apart here.
Target: hCB1 (Homo sapiens, UniProt P21554)
Assay: bioSensAll ebBRET signaling profiling, hCB1
Assay type: cell-based
Design: host or cells: HEK293SL cells, transient PEI transfection
Settings: for RE, relative efficacy: vs CP-55,940; for EC50: read-out: EC50 [95% CI]

hCB1, sequence (P21554 whole entry): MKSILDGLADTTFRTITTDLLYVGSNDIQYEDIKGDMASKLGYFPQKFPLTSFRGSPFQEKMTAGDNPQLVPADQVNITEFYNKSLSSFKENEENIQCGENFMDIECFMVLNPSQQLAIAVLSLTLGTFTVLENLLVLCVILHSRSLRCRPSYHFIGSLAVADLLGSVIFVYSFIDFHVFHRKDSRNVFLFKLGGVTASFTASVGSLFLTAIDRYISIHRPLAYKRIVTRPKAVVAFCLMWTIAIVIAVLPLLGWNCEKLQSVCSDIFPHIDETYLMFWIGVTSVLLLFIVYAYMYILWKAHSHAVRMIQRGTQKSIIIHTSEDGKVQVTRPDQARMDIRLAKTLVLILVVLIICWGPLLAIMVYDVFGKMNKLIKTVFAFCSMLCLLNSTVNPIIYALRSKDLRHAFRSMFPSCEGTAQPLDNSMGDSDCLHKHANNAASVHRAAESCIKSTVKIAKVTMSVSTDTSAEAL

Q: Which “G15 hCB1” value (Log [Compound] (M) -8.68787) does the source give for COC(=O)C(C)(NC(=O)c1cc(C)n(-c2cccc(C(F)(F)F)c2)n1)c1cccs1 (centres unmarked) [‘4042] here?
A: 97.8136 and 87.6381

Q: What about the “Gi1 hCB1” value (Log [Compound] (M) -8.68787) of the same compound?
A: 91.7785 and 78.2511 and 91.448

Q: And the “Gi2 hCB1” value (Log [Compound] (M) -8.68787)?
A: 95.663 and 73.4469

Q: What about the “GoB hCB1” value (Log [Compound] (M) -8.68787) of the same compound?
A: 96.3854 and 73.3436 and 84.1561

Q: And the “Gq hCB1” value (Log [Compound] (M) -8.68787)?
A: 1066

Q: And the “Gs hCB1” value (Log [Compound] (M) -8.68787)?
A: 6260

Q: And the “Gz hCB1” value (Log [Compound] (M) -8.68787)?
A: 96.1128 and 114.514 and 58.5255

Q: And the “G13 hCB1” value (Log [Compound] (M) -9.15521)?
A: 17.7531 and 19.6344

Q: What about the “G15 hCB1” value (Log [Compound] (M) -9.15521) of the same compound?
A: 67.1744 and 66.4649

Q: What about the “Gi1 hCB1” value (Log [Compound] (M) -9.15521) of the same compound?
A: 78.7311 and 50.1158 and 63.8224

Q: And the “Gi2 hCB1” value (Log [Compound] (M) -9.15521)?
A: 65.4704 and 47.7485

Q: And the “GoB hCB1” value (Log [Compound] (M) -9.15521)?
A: 59.8283 and 42.5561 and 56.6226

Q: And the “Gq hCB1” value (Log [Compound] (M) -9.15521)?
A: 1117

Q: And the “Gs hCB1” value (Log [Compound] (M) -9.15521)?
A: 6551

Q: And the “G15 hCB1” value (Log [Compound] (M) -9.61989)?
A: 31.8785 and 42.2144

Q: What about the “Gi2 hCB1” value (Log [Compound] (M) -9.61989) of the same compound?
A: 32.2472 and 21.8596

Q: What about the “GoB hCB1” value (Log [Compound] (M) -9.61989) of the same compound?
A: 29.5611 and 20.1669 and 24.5425

Q: And the “Gq hCB1” value (Log [Compound] (M) -9.61989)?
A: 1001

Q: What about the “Gs hCB1” value (Log [Compound] (M) -9.61989) of the same compound?
A: 6299

Q: And the “G15 hCB1” value (Log [Compound] (M) -10.0969)?
A: 15.3529 and 24.9603

Q: And the “GoB hCB1” value (Log [Compound] (M) -10.0969)?
A: 15.2383 and 7.632 and 9.061

Q: What about the “Gq hCB1” value (Log [Compound] (M) -10.0969) of the same compound?
A: 1213

Q: What about the “Gs hCB1” value (Log [Compound] (M) -10.0969) of the same compound?
A: 6447

Q: What about the “Gq hCB1” value (Log [Compound] (M) -10.5529) of the same compound?
A: 1076

Q: And the “Gs hCB1” value (Log [Compound] (M) -10.5529)?
A: 6140

Q: And the “Gq hCB1” value (Log [Compound] (M) -11.0177)?
A: 1045

Q: And the “Gs hCB1” value (Log [Compound] (M) -11.0177)?
A: 6569

Q: And the “Gq hCB1” value (Log [Compound] (M) -11.4949)?
A: 1094

Q: What about the “Gs hCB1” value (Log [Compound] (M) -11.4949) of the same compound?
A: 6245

Q: What about the “Gq hCB1” value (Log [Compound] (M) -11.9208) of the same compound?
A: 1111

Q: And the “Gs hCB1” value (Log [Compound] (M) -11.9208)?
A: 6591

Q: And the “Gq hCB1” value (Log [Compound] (M) -12.3979)?
A: 1117

Q: And the “Gs hCB1” value (Log [Compound] (M) -12.3979)?
A: 6511

Q: What about the “Gq hCB1” value (Log [Compound] (M) -12.8861) of the same compound?
A: 1023

Q: What about the “Gs hCB1” value (Log [Compound] (M) -12.8861) of the same compound?
A: 6621

Q: And the “pEC50 [95% CI]” value (hCB1 G13)?
A: 8.69 [8.0 – 9.3]

Q: What about the “RE, relative efficacy” value (hCB1 G13) of the same compound?
A: 0.91

Q: What about the “RE, relative efficacy” value (hCB1 G15) of the same compound?
A: 0.74

Q: What about the “pEC50 [95% CI]” value (hCB1 Gi1) of the same compound?
A: 9.32 [9.2 – 9.4]

Q: What about the “RE, relative efficacy” value (hCB1 Gi1) of the same compound?
A: 0.97

Q: What about the “pEC50 [95% CI]” value (hCB1 Gi2) of the same compound?
A: 9.25 [9.0 – 9.5]

Q: What about the “RE, relative efficacy” value (hCB1 Gi2) of the same compound?
A: 1.01

Q: What about the “pEC50 [95% CI]” value (hCB1 GoB) of the same compound?
A: 9.20 [9.1 – 9.3]

Q: And the “RE, relative efficacy” value (hCB1 GoB)?
A: 1.04

Q: And the “RE, relative efficacy” value (hCB1 Gz)?
A: 0.62

Q: And the “RE, relative efficacy” value (hCB1 ßarr2+GRK2)?
A: 0.81

Q: What about the EC50 (hCB1 Barr2 + GRK2) of the same compound?
A: 3.6 nM

Q: What about the EC50 (hCB1 G13) of the same compound?
A: 2.1 nM

Q: And the EC50 (hCB1 G15)?
A: 0.37 nM

Q: And the EC50 (hCB1 GoB)?
A: 0.64 nM
